According to patent US9738634B2, “Heterocyclic amide compound and herbicide” (SYNGENTA PARTICIPATIONS AG, priority 2013, dated 2017):

How the values were obtained:
Type in all cases: in vivo
green foxtail [1] = experiment: Test Example 3: weedkilling efficacy through soil treatment; E: green foxtail; conditions: treatment dosage 315 g/ha
Method in brief: (§1)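 Crop and weed responses were judged three weeks after a uniform surface spray of the water-diluted emulsion at the given g/ha rate. Seeds sat beneath about 1.5 cm of sterilized diluvial soil, and boxes stood in a greenhouse at 25 to 30° C.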

fig-leafed goosefoot [2] = experiment: Test Example 3: weedkilling efficacy through soil treatment; M: fig-leafed goosefoot; conditions: treatment dosage 315 g/ha
Method in brief: as §1

barnyard grass [3] = experiment: Test Example 1: weedkilling efficacy, preemergent weed treatment in the submerged state; A: barnyard grass; conditions: treatment dosage 252 g/ha
Method in brief: (§2)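 Submerged pre-emergence treatment, water-surface application of compound emulsion at g/ha dosages; 4 cm flooded alluvial soil, weeds sown and 2.5-leaf rice transplanted same day. Rated after 3 weeks, greenhouse.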

black-grass [4] = experiment: Test Example 4: weedkilling efficacy by foliar treatment; H: black-grass; conditions: treatment dosage 315 g/ha
Method in brief: (§3)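 Seeds are spot-sown into sterilized diluvial soil and covered with about 1.5 cm of soil. After 14 days' greenhouse growth at 25 to 30° C, plants are sprayed on stems and leaves with diluted emulsion at the stated g/ha rate, then scored at 3 weeks.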

wild oat [5] = experiment: Test Example 4: weedkilling efficacy by foliar treatment; G: wild oat; conditions: treatment dosage 315 g/ha
Method in brief: as §3

soybean [6] = experiment: Test Example 3: soil treatment, effect on crop; d: soybean; conditions: treatment dosage 315 g/ha
Method in brief: as §1

wheat [7] = experiment: Test Example 4: foliar treatment, effect on crop; e: wheat; conditions: treatment dosage 315 g/ha
Method in brief: as §3

Italian ryegrass [8] = experiment: Test Example 3: weedkilling efficacy through soil treatment; I: Italian ryegrass; conditions: treatment dosage 315 g/ha
Method in brief: as §1

bulrush [9] = experiment: Test Example 1: weedkilling efficacy, preemergent weed treatment in the submerged state; B: bulrush; conditions: treatment dosage 252 g/ha
Method in brief: as §2

redroot pigweed [10] = experiment: Test Example 3: weedkilling efficacy through soil treatment; L: redroot pigweed; conditions: treatment dosage 315 g/ha
Method in brief: as §1

Italian ryegrass [11] = experiment: Test Example 4: weedkilling efficacy by foliar treatment; I: Italian ryegrass; conditions: treatment dosage 315 g/ha
Method in brief: as §3

beet [12] = experiment: Test Example 3: soil treatment, effect on crop; f: beet; conditions: treatment dosage 315 g/ha
Method in brief: as §1

redroot pigweed [13] = experiment: Test Example 4: weedkilling efficacy by foliar treatment; L: redroot pigweed; conditions: treatment dosage 315 g/ha
Method in brief: as §3

Indian mallow [14] = experiment: Test Example 4: weedkilling efficacy by foliar treatment; K: Indian mallow; conditions: treatment dosage 315 g/ha
Method in brief: as §3

barnyard grass [15] = experiment: Test Example 2: weedkilling efficacy, growth period weed treatment in the submerged state; A: barnyard grass; conditions: treatment dosage 252 g/ha
Method in brief: (§4)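 Seedlings at 1-2 leaves in 4 cm-deep submerged alluvial soil received emulsion formulations on the water surface, dosed per hectare; effects were judged 3 weeks on.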

corn [16] = experiment: Test Example 3: soil treatment, effect on crop; c: corn; conditions: treatment dosage 315 g/ha
Method in brief: as §1

Indian mallow [17] = experiment: Test Example 3: weedkilling efficacy through soil treatment; K: Indian mallow; conditions: treatment dosage 315 g/ha
Method in brief: as §1

transplanted rice = experiment: Test Example 1: preemergent weed treatment in the submerged state, effect on crop; a: transplanted rice; conditions: treatment dosage 252 g/ha
Method in brief: as §2

chickweed [18] = experiment: Test Example 4: weedkilling efficacy by foliar treatment; N: chickweed; conditions: treatment dosage 315 g/ha
Method in brief: as §3

directly sown rice = experiment: Test Example 4: foliar treatment, effect on crop; b: directly sown rice; conditions: treatment dosage 315 g/ha
Method in brief: as §3

beet [19] = experiment: Test Example 4: foliar treatment, effect on crop; f: beet; conditions: treatment dosage 315 g/ha
Method in brief: as §3

green foxtail [20] = experiment: Test Example 4: weedkilling efficacy by foliar treatment; E: green foxtail; conditions: treatment dosage 315 g/ha
Method in brief: as §3

wheat [21] = experiment: Test Example 3: soil treatment, effect on crop; e: wheat; conditions: treatment dosage 315 g/ha
Method in brief: as §1

oval-leafed pondweed [22] = experiment: Test Example 1: weedkilling efficacy, preemergent weed treatment in the submerged state; C: oval-leafed pondweed; conditions: treatment dosage 252 g/ha
Method in brief: as §2

oval-leafed pondweed [23] = experiment: Test Example 2: weedkilling efficacy, growth period weed treatment in the submerged state; C: oval-leafed pondweed; conditions: treatment dosage 252 g/ha
Method in brief: as §4

soybean [24] = experiment: Test Example 4: foliar treatment, effect on crop; d: soybean; conditions: treatment dosage 315 g/ha
Method in brief: as §3

wild oat [25] = experiment: Test Example 3: weedkilling efficacy through soil treatment; G: wild oat; conditions: treatment dosage 315 g/ha
Method in brief: as §1

corn [26] = experiment: Test Example 4: foliar treatment, effect on crop; c: corn; conditions: treatment dosage 315 g/ha
Method in brief: as §3

catchweed = experiment: Test Example 4: weedkilling efficacy by foliar treatment; O: catchweed; conditions: treatment dosage 315 g/ha
Method in brief: as §3

black-grass [27] = experiment: Test Example 3: weedkilling efficacy through soil treatment; H: black-grass; conditions: treatment dosage 315 g/ha
Method in brief: as §1

bulrush [28] = experiment: Test Example 2: weedkilling efficacy, growth period weed treatment in the submerged state; B: bulrush; conditions: treatment dosage 252 g/ha
Method in brief: as §4

fig-leafed goosefoot [29] = experiment: Test Example 4: weedkilling efficacy by foliar treatment; M: fig-leafed goosefoot; conditions: treatment dosage 315 g/ha
Method in brief: as §3

chickweed [30] = experiment: Test Example 3: weedkilling efficacy through soil treatment; N: chickweed; conditions: treatment dosage 315 g/ha
Method in brief: as §1

crabgrass [31] = experiment: Test Example 3: weedkilling efficacy through soil treatment; D: crabgrass; conditions: treatment dosage 315 g/ha
Method in brief: as §1

birds-eye speedwell = experiment: Test Example 4: weedkilling efficacy by foliar treatment; p: birds-eye speedwell; conditions: treatment dosage 315 g/ha
Method in brief: as §3

crabgrass [32] = experiment: Test Example 4: weedkilling efficacy by foliar treatment; D: crabgrass; conditions: treatment dosage 315 g/ha
Method in brief: as §3

CC1=C(c2ccccc2)C(=O)N(C(C)(C)C(=O)Nc2cncc(Cl)c2)CO1 [B-3-02]
E (green foxtail) weedkilling efficacy grade (green foxtail [1]): 5 (weed kill ratio 90% or more, (practically complete withering)) | M (fig-leafed goosefoot) weedkilling efficacy grade (fig-leafed goosefoot [2]): 4 (weed kill ratio 70% or more, less than 90%) | A (barnyard grass) weedkilling efficacy grade (barnyard grass [3]): 5 (weed kill ratio 90% or more, (practically complete withering)) | H (black-grass) weedkilling efficacy grade (black-grass [4]): 5 (weed kill ratio 90% or more, (practically complete withering)) | G (wild oat) weedkilling efficacy grade (wild oat [5]): 5 (weed kill ratio 90% or more, (practically complete withering)) | d (soybean) effect on crop grade (soybean [6]): 0 (weed kill ratio 5% or less (practically no effect)) | e (wheat) effect on crop grade (wheat [7]): 3 (weed kill ratio 40% or more, less than 70%) | I (Italian ryegrass) weedkilling efficacy grade (Italian ryegrass [8]): 5 (weed kill ratio 90% or more, (practically complete withering)) | B (bulrush) weedkilling efficacy grade (bulrush [9]): 5 (weed kill ratio 90% or more, (practically complete withering)) | L (redroot pigweed) weedkilling efficacy grade (redroot pigweed [10]): 5 (weed kill ratio 90% or more, (practically complete withering)) | I (Italian ryegrass) weedkilling efficacy grade (Italian ryegrass [11]): 5 (weed kill ratio 90% or more, (practically complete withering)) | f (beet) effect on crop grade (beet [12]): 4 (weed kill ratio 70% or more, less than 90%) | L (redroot pigweed) weedkilling efficacy grade (redroot pigweed [13]): 3 (weed kill ratio 40% or more, less than 70%) | K (Indian mallow) weedkilling efficacy grade (Indian mallow [14]): 4 (weed kill ratio 70% or more, less than 90%) | A (barnyard grass) weedkilling efficacy grade (barnyard grass [15]): 4 (weed kill ratio 70% or more, less than 90%) | c (corn) effect on crop grade (corn [16]): 3 (weed kill ratio 40% or more, less than 70%) | K (Indian mallow) weedkilling efficacy grade (Indian mallow [17]): 3 (weed kill ratio 40% or more, less than 70%) | a (transplanted rice) effect on crop grade (transplanted rice): 3 (weed kill ratio 40% or more, less than 70%) | N (chickweed) weedkilling efficacy grade (chickweed [18]): 0 (weed kill ratio 5% or less (practically no effect)) | b (directly sown rice) effect on crop grade (directly sown rice): 5 (weed kill ratio 90% or more, (practically complete withering)) | f (beet) effect on crop grade (beet [19]): 3 (weed kill ratio 40% or more, less than 70%) | E (green foxtail) weedkilling efficacy grade (green foxtail [20]): 5 (weed kill ratio 90% or more, (practically complete withering)) | e (wheat) effect on crop grade (wheat [21]): 5 (weed kill ratio 90% or more, (practically complete withering)) | C (oval-leafed pondweed) weedkilling efficacy grade (oval-leafed pondweed [22]): 5 (weed kill ratio 90% or more, (practically complete withering)) | C (oval-leafed pondweed) weedkilling efficacy grade (oval-leafed pondweed [23]): 5 (weed kill ratio 90% or more, (practically complete withering)) | d (soybean) effect on crop grade (soybean [24]): 4 (weed kill ratio 70% or more, less than 90%) | G (wild oat) weedkilling efficacy grade (wild oat [25]): 5 (weed kill ratio 90% or more, (practically complete withering)) | c (corn) effect on crop grade (corn [26]): 4 (weed kill ratio 70% or more, less than 90%) | O (catchweed) weedkilling efficacy grade (catchweed): 4 (weed kill ratio 70% or more, less than 90%) | H (black-grass) weedkilling efficacy grade (black-grass [27]): 5 (weed kill ratio 90% or more, (practically complete withering)) | B (bulrush) weedkilling efficacy grade (bulrush [28]): 5 (weed kill ratio 90% or more, (practically complete withering)) | M (fig-leafed goosefoot) weedkilling efficacy grade (fig-leafed goosefoot [29]): 2 (weed kill ratio 20% or more, less than 40%) | N (chickweed) weedkilling efficacy grade (chickweed [30]): 4 (weed kill ratio 70% or more, less than 90%) | D (crabgrass) weedkilling efficacy grade (crabgrass [31]): 5 (weed kill ratio 90% or more, (practically complete withering)) | P (birds-eye speedwell) weedkilling efficacy grade (birds-eye speedwell): 3 (weed kill ratio 40% or more, less than 70%) | D (crabgrass) weedkilling efficacy grade (crabgrass [32]): 5 (weed kill ratio 90% or more, (practically complete withering))
